Assays:
Format in all cases: in vivo
[1] = test system: neonicotinoid insecticide resistant aphid strain; experiment: Leaf disc spray bioassay on chinese cabbage, aphid mortality (Example 1), resistant strain; details: resistant aphid strain from peach orchard, Avignon region, mixed age aphids, mortality 72 hours after treatment
Description: (§1) 5 cm leaf discs were taken from fully expanded chinese cabbage leaves and placed with the underside facing upwards onto water agar in 5 cm Petri dishes. The leaf discs are infested with between 30 and 40 mixed age aphids 24 hours prior to insecticide treatment. The leaf surface is sprayed with the appropriate test solutions in a Burkhard Potter Tower at an approximate water volume of […]. Test containers are stored at 21° C., 60% RH and 16:8 light/dark. Aphids were assessed for mortality 72 hours after treatment.

[2] = test system: neonicotinoid insecticide susceptible strain 4106A; experiment: Leaf disc spray bioassay on chinese cabbage, aphid mortality (Example 1), susceptible strain; details: susceptible strain 4106A (Rothamsted Research), mixed age aphids, mortality 72 hours after treatment
Description: as §1

[3] = test system: susceptible or neonicotinoid-resistant Myzus persicae population; experiment: Pea seedling spray test, mortality of susceptible and neonicotinoid-resistant populations (Example 2); details: ratio of rates for 80% mortality, resistant versus susceptible Myzus persicae; BP80 = lowest known rate providing 80% or more mortality; 6 days after treatment; pea seedlings
Description: Pea seedlings, infested with a susceptible or neonicotinoid-resistant Myzus persicae population of mixed ages, respectively, are treated with the test solutions (200, 50, 12.5, 3, 0.8, 0.2, 0.05 ppm a.i.) in a turn table spray chamber. 6 days after treatment, samples are checked for mortality.
The results of the resistance factor at BP80 (lowest known rate providing 80% or more mortality) are indicated below.

SMILES | LC50 with 95% confidence limit, resistant strain [1] | LC50 with 95% confidence limit, susceptible strain [2] | resistance factor at BP80 [3]
N#CCNC(=O)c1cnccc1C(F)(F)F [flonicamid] | 2.74 (0.53-6.81) ppm | 1.65 (1.3-2.09) ppm | 
CO/N=C(\C)CNC(=O)c1cnccc1C(F)(F)F |  |  | 4
Cc1noc(-c2cnccc2C(F)(F)F)n1 [276684-49-2] |  |  | <1
O=C(NCc1ccccn1)c1cnccc1C(F)(F)F [164149-37-5] |  |  | 4
CN(C)C(=O)c1cnccc1C(F)(F)F [158063-01-5] |  |  | 1.7
O=C(NCc1ccc(Cl)cc1)c1cnccc1C(F)(F)F [158063-19-5] |  |  | >16
N#C/N=C1\SCCN1Cc1ccc(Cl)nc1 [thiacloprid] | >1000 ppm | 0.38 (0.34-0.42) ppm | 
CCN(Cc1ccc(Cl)nc1)/C(=C/[N+](=O)[O-])NC [nitenpyram] | 237 (93.7-3566) ppm | 1.26 (1.03-1.61) ppm | 
CN(O)C(=O)c1cnccc1C(F)(F)F [323180-93-4] |  |  | Not adequate control for 80% mortality on sensitive & resistance strains
O=C(NCN1CCCC1)c1cnccc1C(F)(F)F [158063-50-4] |  |  | 1
CN1COCN(Cc2cnc(Cl)s2)/C1=N/[N+](=O)[O-] [thiamethoxam] | 148 (128-172) ppm | 0.35 (0.3-0.41) ppm | >250
CC(C)N1CN=C(c2cnccc2C(F)(F)F)OC1=O [1098412-17-9] |  |  | 1
NC(=O)c1cnccc1C(F)(F)F [158062-71-6] |  |  | 4
CNC(=O)c1cnccc1C(F)(F)F [158062-76-1] |  |  | 1
CN/C(=N/CC1CCOC1)N[N+](=O)[O-] (stereo not drawn) [dinotefuran] | 538 (435-696) ppm | 9.95 (8.21-12.5) ppm | 
O=C(c1cnccc1C(F)(F)F)N(O)Cc1ccccc1 [323181-02-8] |  |  | >1
CN/C(=N\[N+](=O)[O-])NCc1cnc(Cl)s1 [clothianidin] | 904 (478-3616) ppm | 0.33 (0.28-0.38) ppm | 
O=C(N=S(c1ccccc1)c1ccccc1)c1cnccc1C(F)(F)F [362724-14-9] |  |  | 4
C/C(=N\C#N)N(C)Cc1ccc(Cl)nc1 [acetamiprid] | 49.3 (35.2-72.0) ppm | 0.55 (0.51-0.59) ppm | 

Reference: US20130231334A1, “METHODS OF CONTROLLING NEONICOTINOID RESISTANT APHIDS” (SYNGENTA CROP PROTECTION LLC, priority 2010, published 2013)
